Results as given in US20030153549A1, “Clavams as protease inhibitors” (priority 2000, published 2003).

Tests used:
[1] = molecular target: T1, PPE (Sus scrofa, UniProt P00772); assay: Electrospray ionisation mass spectrometry of PPE incubated with one equivalent of inhibitor (adduct formation); type: binding, porcine; details: time points 3 minutes to 5 hours, unbuffered
Description: Electrospray ionisation mass spectrometry. Electrospray ionisation mass spectra were recorded on a Micromass BioQ II-ZS triple quadruple mass spectrometer equipped with an electrospray interface. PPE at 80 pmol μl^−1 was incubated with one equivalent of inhibitor. Samples (5 μl) were removed at fixed time points, diluted with water:acetonitrile (1:1 v/v) containing 0.2% (v/v) formic acid to give a protein concentration of 5 pmol μl^−1 and analysed immediately. The resulting electrospray mass spectra were calibrated relative to native porcine pancreatic elastase PPE and processed using the MaxEnt algorithm and the spectra reported as centroided data.

[2] = molecular target: porcine pancreatic elastase PPE (Sus scrofa, UniProt P00772); assay: Enzyme assay: hydrolysis of Suc-AlaAlaProAla-pNa by PPE, measured at 405 nm; type: biochemical; details: for IC50: substrate 100 μM, 25° C., pH 7.5, 10% DMSO; for inhibitory potency with pre-incubation of the clavam with PPE: with pre-incubation versus without
Description: Enzyme assays. Enzyme assays were performed using a Shimadzu 1601PC spectrophotometer equipped with a thermostatted multi-cell transport system. The hydrolysis of the para-nitroanilide substrate (Suc-AlaAlaProAla-pNa, 100 μM) was measured at 405 nm and at a constant temperature of 25° C. in 0.1 M Tris-HCl buffer (pH 7.5). At least quadruplicate measurements of the initial rate were determined at five inhibitor concentrations and data analysed using standard kinetic equations programmed into Excel (Microsoft Corp.) and Grafit (Erithacus Inc.). To aid solubility the clavam inhibitors were dissolved in DMSO to give a final concentration in the assay of 10% (v/v).
It is likely that the lack of inhibition observed from clavulanic acid (1) is due to the presence of a negative charge on the carboxylic acid on C-3 which prevents binding within the PPE active site.

[3] = molecular target: T1, PPE; assay: 1H NMR analysis of incubation of PPE with clavulanic acid derivative (ester hydrolysis); type: biochemical, porcine; details: D2O/CD3CN, 303K
Description: NMR experimental procedures. ^1H NMR analyses were performed at 500 MHz on a Bruker AMX500 instrument. Samples (450-500 μl) of PPE (ca. 3 mg) and clavulanic acid derivative (ca 3 mg) were dissolved in 10% (v/v) CD3CN in D2O. The temperature was regulated at 303K and the spectra were referenced to internal MeCN at 2.05 ppm.
Their identity was subsequently confirmed by doping experiments.

Chain of porcine pancreatic elastase PPE (P00772 27-266): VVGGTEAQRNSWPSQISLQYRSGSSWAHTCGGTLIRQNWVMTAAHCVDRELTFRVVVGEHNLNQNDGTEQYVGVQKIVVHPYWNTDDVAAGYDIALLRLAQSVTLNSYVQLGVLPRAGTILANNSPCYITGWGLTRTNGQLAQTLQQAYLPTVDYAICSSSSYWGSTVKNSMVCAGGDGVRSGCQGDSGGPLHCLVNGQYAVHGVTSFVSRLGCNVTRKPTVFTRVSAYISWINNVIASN
T1 sequence (P00772 27-266): as above

| Structure (SMILES) | mass increments / adducts relative to native PPE (ESIMS) [1] | inhibition of PPE ([2]; standard assay conditions) | PPE-catalysed hydrolysis of the ester side chain (1H NMR) [3] | inhibition ([2]; pre-incubation of clavam with PPE 15 minutes) | inhibition ([2]; pre-incubation of clavam with PPE 30 minutes) | inhibition ([2]; pre-incubation of clavam with PPE 60 minutes) | IC50 ([2]; standard assay conditions) | inhibitory potency with pre-incubation of the clavam with PPE [2] |
| --- | --- | --- | --- | --- | --- | --- | --- | --- |
| O=C(O)[C@H]1/C(=C/CO)O[C@@H]2CC(=O)N21 [compound 1, Clavulanic acid, reference compound] | no mass increments | did not inhibit PPE |  |  |  |  |  |  |
| O=C(OCc1ccccc1)[C@H]1/C(=C/CO)O[C@@H]2CC(=O)N21 [compound 9] | formation of an initial acyl-enzyme complex |  | just visible after a one hour incubation period | 43% | 87% | 93% | 184 µM | increased significantly |
| O=C(OCc1ccc([N+](=O)[O-])cc1)[C@H]1/C(=C/CO)O[C@@H]2CC(=O)N21 [compound 10] | formation of the 70 and 88 Da adducts appeared to be slightly faster |  |  |  |  |  | 187 µM | increased significantly |
